As a reminder, the IC50 is the concentration at which inhibition is half-maximal.

Structures are written as SMILES. A value given as a limit tells only on which side of the number the result lay.

Data set [1] relates to RAW264.7. Nature of the data set: Anti-inflammatory activity in mouse RAW264.7 cells assessed as inhibition of LPS-induced NO production incubated for 24 hrs by Griess reagent based analysis. The format is functional, cell-based. To be noted: RAW264.7, 24 h. On the technique in general: Griess reagent forms a coloured azo dye with nitrite.
The test system of data set [2] is RAW264.7. Nature of the data set: Cytotoxicity against mouse RAW264.7 cells assessed as reduction in cell viability at 5 to 50 uM measured for 24 hrs by MTT assay. In kind it is toxicity, cell-based. To be noted: raw264.7, 24 h, dose 5-50 µM.

In the case of `C=C[C@@]1(C)CCc2c3c(cc(O)c2[C@@H]1O)C(C)(C)CCC3`, in the data set with RAW264.7 [1], the IC50 worked out at 40 µM. For the same compound, in the data set on RAW264.7 [2], the Activity entry is recorded as “Non-Toxic”.
On the same counts, the results for `C=C[C@@]1(C)CCC2=C(C1)C(=O)C[C@H]1C(C)(C)[C@H](O)C[C@@H](O)[C@]21C` are more than 50 µM and “Non-Toxic”.
On the same counts, the results for `C=C[C@]1(C)C=C2[C@@H](OC(C)=O)[C@H]3OC(=O)[C@@]4(CCCC(C)(C)[C@H]34)[C@@]2(O)CC1` are 35 µM and “Non-Toxic”.
Taken in the same sequence, the figures for `C=C[C@]1(C)C=C2[C@@H](O)C[C@H]3C(C)(C)CC[C@@H](OC(C)=O)[C@]3(C)[C@@]2(O)CC1` were 25 µM and “Non-Toxic”.
With `C=C[C@@]1(C)CCc2c3c(cc(O)c2[C@H]1OC)C(C)(C)CCC3`, in the data set on RAW264.7 [1], the IC50 came to 37 µM. For the same compound, the Activity result in the data set on RAW264.7 [2] is reported as “Non-Toxic”.
On the same counts, the results for `C=C[C@@]1(C)CCc2c3c(cc(O)c2[C@@H]1O)[C@@](C)(CO)CCC3` are more than 50 µM and “Non-Toxic”.
In the case of `C=C[C@@]1(C)CCc2c(c(O)cc3c2CCCC3(C)C)C1`, the IC50 with RAW264.7 [1] was more than 50 µM. For the same compound, in the data set with RAW264.7 [2], the Activity result is recorded as “Non-Toxic”.
Take `C=C[C@@]1(C)CCc2c3c(cc(O)c2[C@H]1O)C(C)(C)CCC3`: the IC50 in the data set with RAW264.7 [1] is more than 50 µM. Also, the Activity entry with RAW264.7 [2] is reported as “Non-Toxic”.
On the same counts, the results for `C=C[C@]1(C)C=C2C(=O)C[C@H]3C(C)(C)CC[C@@H](OC(C)=O)[C@]3(C)[C@@]2(O)CC1` are 33 µM and “Non-Toxic”.
Consider `C=C[C@@]1(C)CCc2c3c(cc(O)c2[C@H]1O)[C@](C)(CO)CCC3`, for which the IC50 in the data set on RAW264.7 [1] was more than 50 µM. Further, in the data set with RAW264.7 [2], the Activity result is “Non-Toxic”.
On the same counts, the results for `C=C[C@@]1(C)CCc2c3c(cc(O)c2[C@@H]1OC)[C@@](C)(CO)CCC3` are 42 µM and “Non-Toxic”.
With `C=C[C@]1(C)C=C2[C@@H](O)[C@H](O)[C@H]3C(C)(C)CC[C@@H](OC(C)=O)[C@]3(C)[C@@]2(O)CC1`, the IC50 in the data set with RAW264.7 [1] worked out at 35 µM. The Activity entry in the data set on RAW264.7 [2] is on record as “Non-Toxic”.
Taken in the same sequence, the figures for `C=C[C@]1(C)C=C2C(=O)C[C@H]3C(C)(C)CCC[C@]3(C(=O)O)[C@@]2(O)CC1` [SPHAEROPSIDIN C] were 31 µM and “Non-Toxic”.
Taken in the same sequence, the figures for `C=C[C@@]1(C)CCc2c3c(cc(O)c2[C@H]1OC)[C@](C)(CO)CCC3` were 42 µM and “Non-Toxic”.
On the same counts, the results for `C=C[C@@]1(C)CCc2c3c(cc(O)c2C1=O)[C@](C)(CO)CCC3` are 19 µM and “Non-Toxic”.
`C=C[C@]1(C)C=C2[C@](O)(CC1)[C@@]13CCCC(C)(C)[C@@H]1[C@@H](OC(C)=O)[C@]2(O)OC3`: in the data set with RAW264.7 [1], the IC50 is 30 µM. Further, the Activity result with RAW264.7 [2] is “Non-Toxic”.
Taken in the same sequence, the figures for `C=C[C@@]1(C)CCC2=C([C@H]3O[C@@H](OC)[C@@]24CCCC(C)(C)[C@@H]4[C@H]3OC(C)=O)[C@H]1O` were 37 µM and “Non-Toxic”.
Taken in the same sequence, the figures for `C=C[C@]1(C)C=C2[C@H]3O[C@@H](O)[C@@]4(CCCC(C)(C)[C@@H]4[C@H]3OC(C)=O)[C@@]2(O)CC1` were 33 µM and “Non-Toxic”.
On the same counts, the results for `C=C[C@@]1(C)CC[C@@]2(O)C(=C[C@H](O)[C@H]3C(C)(C)CC[C@@H](OC(C)=O)[C@@]32C)[C@H]1O` are more than 50 µM and “Non-Toxic”.
For the compound `C=C[C@@]1(C)C[C@H](O)c2c3c(cc(O)c2[C@H]1OC)C(C)(C)CCC3`, the IC50 in the data set with RAW264.7 [1] stood at 38 µM. In addition, the Activity result with RAW264.7 [2] was “Non-Toxic”.
Taken in the same sequence, the figures for `C=C[C@@]1(C)CCc2c3c(cc(O)c2[C@@H]1OC)C(C)(C)CCC3` were 30 µM and “Non-Toxic”.
Consider `C=C[C@@]1(C)CCc2c3c(cc(O)c2[C@@H]1OC)C(C)(C)[C@@H](O)CC3`, for which the IC50 with RAW264.7 [1] is 35 µM. The Activity result with RAW264.7 [2] was “Non-Toxic”.

The values are drawn from ChEMBL document CHEMBL5357057, “Pleosmaranes A-R, Isopimarane and 20-nor Isopimarane Diterpenoids with Anti-inflammatory Activities from the Mangrove Endophytic Fungus Pleosporales sp. HNQQJ-1” (J Nat Prod, 2024).
